Measurements from patent publication US10668043B2, “Potentiated antimicrobial agents” (priority 2014, dated 2020).
Converted amounts (≈) assume the structure as drawn.

How the values were obtained:
Pasteurella = assay: etest on agar containing the booster; assay type: cell-based
From the text: The corresponding tests are made based on the usual MIC test: the etest® (Biomerieux) strip is deposited onto the surface of a seeded agar medium in which the booster has been incorporated.
(§1) The control corresponds to the test made without cineol. A control is made in each solvent tested: distilled water, Tween/water and DMSO. • ED control=antibiotic alone in distilled water • DMSO control=antibiotic alone in DMSO • TE control=antibiotic alone in Tween® 80
Other e-tests are also made on Pasteurella.

MSSA 8238 = conditions: Balb/c, mouse, in vivo
Experimental: To Balb/c mice, is injected (Sc.) the antimicrobial product or the antimicrobial+booster mixture.
At different post-injection times, the mice are euthanised, and blood sampled, heparined and centrifuged to extract plasma thereof
Antibacterial effects are measured after 24 h incubation. The successive dilutions enable the antimicrobial effect to be determined and compared with the MIC. The efficient concentration/MIC ratio is thus determined.

E. coli [1] = assay: etest on agar containing the booster; assay type: cell-based; design: MIC (e-test): unit not given beside the values
From the text: (§2) The corresponding tests are made based on the usual MIC test: the etest® (Biomerieux) strip is deposited onto the surface of a seeded agar medium in which the booster has been incorporated. This test enables solvent effect risks, that is a possible interaction with the solvent used in vitro, to be minimised.
as §1

Staphylococcus = assay: etest on agar containing the booster; assay type: cell-based; design: MIC (e-test): unit not given beside the values
From the text: as §2, §1

E. coli [2] = assay: Double dilution test; assay type: cell-based
From the text: The double dilution test is a MIC measurement test made on successive dilutions of the 2 products of the composition. […] The summary table expresses for each strain and for each dilution of the booster the measured antibiotic MIC.
The code enabling the results to be interpreted is the following one: no sign “^+” if the MIC is equivalent with and without booster, a sign “^+” if the value is lower with booster.

For `CC1(C)S[C@@H]2[C@H](NC(=O)[C@H](N)c3ccc(O)cc3)C(=O)N2[C@H]1C(=O)O` [Amox, amoxicillin], the MIC (e-test) (Pasteurella; strain 14012, 5 mg cineol DMSO) was 0.094 µg/mL (≈ 0.257 µM), the MIC (e-test) (Pasteurella; strain 14012, 5 mg cineol TE) was 0.094 µg/mL (≈ 0.257 µM) and the MIC (e-test) (Pasteurella; strain 14012, 5 mg cineol water) was 0.094 µg/mL (≈ 0.257 µM). The MIC (e-test) (Pasteurella; strain 14012, 10 mg cineol TE) was 0.094 µg/mL (≈ 0.257 µM), the MIC (e-test) (Pasteurella; strain 14012, 10 mg cineol water) was 0.094 µg/mL (≈ 0.257 µM) and the MIC (e-test) (Pasteurella; strain 14012, DMSO control) was 0.094 µg/mL (≈ 0.257 µM). For the same molecule, the MIC (e-test) (Pasteurella; strain 14012, ED control) was 0.032 µg/mL (≈ 0.0876 µM), the MIC (e-test) (Pasteurella; strain 14012, TE control) was 0.19 µg/mL (≈ 0.52 µM) and the MIC (e-test) (Pasteurella; strain 14013, 5 mg cineol DMSO) was 0.25 µg/mL (≈ 0.684 µM). For the same molecule, the MIC (e-test) (Pasteurella; strain 14013, 5 mg cineol TE) was 0.25 µg/mL (≈ 0.684 µM), the MIC (e-test) (Pasteurella; strain 14013, 5 mg cineol water) was 0.25 µg/mL (≈ 0.684 µM) and the MIC (e-test) (Pasteurella; strain 14013, 10 mg cineol DMSO) was 0.25 µg/mL (≈ 0.684 µM). The MIC (e-test) (Pasteurella; strain 14013, 10 mg cineol water) was 0.19 µg/mL (≈ 0.52 µM), the MIC (e-test) (Pasteurella; strain 14013, DMSO control) was 0.19 µg/mL (≈ 0.52 µM) and the MIC (e-test) (Pasteurella; strain 14013, ED control) was 0.19 µg/mL (≈ 0.52 µM). It also gave an MIC (e-test) (Pasteurella; strain 14013, TE control) of 0.25 µg/mL (≈ 0.684 µM), an MIC (e-test) (Pasteurella; strain 14014, 5 mg cineol DMSO) of 0.094 µg/mL (≈ 0.257 µM) and an MIC (e-test) (Pasteurella; strain 14014, 5 mg cineol TE) of 0.094 µg/mL (≈ 0.257 µM). For the same molecule, the MIC (e-test) (Pasteurella; strain 14014, 5 mg cineol water) was 0.19 µg/mL (≈ 0.52 µM), the MIC (e-test) (Pasteurella; strain 14014, 10 mg cineol TE) was 0.094 µg/mL (≈ 0.257 µM) and the MIC (e-test) (Pasteurella; strain 14014, ED Control) was 0.094 µg/mL (≈ 0.257 µM). The MIC (e-test) (Pasteurella; strain 14014, TE control) was 0.094 µg/mL (≈ 0.257 µM), the “Time spent beyond the MIC” value (MSSA 8238) was less than 5 h and the “MIC (e-test)” value (E. coli [1]; strain 8141, Cineol 4 mg/L, DMSO) was 6^+. The “MIC (e-test)” value (E. coli [1]; strain 8141, Cineol 16 mg/L, DMSO) was 0.1^+, the “MIC (e-test)” value (E. coli [1]; strain 8141, ED control, no cineol) was 8^+ and the “MIC (e-test)” value (E. coli [1]; strain 8150, Cineol 4 mg/L, DMSO) was 6^+. For the same molecule, the “MIC (e-test)” value (E. coli [1]; strain 8150, Cineol 16 mg/L, DMSO) was 0.1^+, the “MIC (e-test)” value (E. coli [1]; strain 8150, ED control, no cineol) was 8^+ and the “MIC (e-test)” value (E. coli [1]; strain 8156, Cineol 4 mg/L, DMSO) was 8^+. For the same molecule, the “MIC (e-test)” value (E. coli [1]; strain 8156, Cineol 16 mg/L, DMSO) was 8^+, the “MIC (e-test)” value (E. coli [1]; strain 8156, ED control, no cineol) was 12^+ and the “MIC (e-test)” value (E. coli [1]; strain ATCC25922, Cineol 4 mg/L, DMSO) was 12^+. The “MIC (e-test)” value (E. coli [1]; strain ATCC25922, Cineol 16 mg/L, DMSO) was 12^+, the “MIC (e-test)” value (E. coli [1]; strain ATCC25922, ED control, no cineol) was 16^+ and the “MIC (e-test)” value (Staphylococcus; strain 8143, Cineol 4 mg/L, DMSO) was 1.5^+. For the same molecule, the “MIC (e-test)” value (Staphylococcus; strain 8143, Cineol 16 mg/L, DMSO) was 1.5^+, the “MIC (e-test)” value (Staphylococcus; strain 8143, ED control, no cineol) was 2^+ and the “MIC (e-test)” value (Staphylococcus; strain 8146, Cineol 4 mg/L, DMSO) was 0.38^+. The “MIC (e-test)” value (Staphylococcus; strain 8146, Cineol 16 mg/L, DMSO) was 0.19^+, the “MIC (e-test)” value (Staphylococcus; strain 8146, ED control, no cineol) was 0.5^+ and the “MIC (e-test)” value (Staphylococcus; strain 8149, Cineol 4 mg/L, DMSO) was 0.5^+. The “MIC (e-test)” value (Staphylococcus; strain 8149, Cineol 16 mg/L, DMSO) was 0.38^+, the “MIC (e-test)” value (Staphylococcus; strain 8149, ED control, no cineol) was 1^+ and the “MIC (e-test)” value (Staphylococcus; strain 8240, Cineol 4 mg/L, DMSO) was 12^+. The “MIC (e-test)” value (Staphylococcus; strain 8240, Cineol 16 mg/L, DMSO) was 16^+, the “MIC (e-test)” value (Staphylococcus; strain 8240, ED control, no cineol) was 24^+ and the “MIC (e-test)” value (Staphylococcus; strain 8241, Cineol 4 mg/L, DMSO) was 8^+. The “MIC (e-test)” value (Staphylococcus; strain 8241, Cineol 16 mg/L, DMSO) was 12^+, the “MIC (e-test)” value (Staphylococcus; strain 8241, ED control, no cineol) was 32^+ and the “MIC (e-test)” value (Staphylococcus; strain 10168, Cineol 4 mg/L, DMSO) was 1^+. The “MIC (e-test)” value (Staphylococcus; strain 10168, Cineol 16 mg/L, DMSO) was 1^+, the “MIC (e-test)” value (Staphylococcus; strain 10168, ED control, no cineol) was 2^+ and the amoxicillin MIC (E. coli [2]; strain 8137, Amox, cineol 0) was 8 µg/mL. The “amoxicillin MIC” value (E. coli [2]; strain 8137, cineol 10 mg/L) was 0.5^+, the amoxicillin MIC (E. coli [2]; strain 8137, cineol 20 mg/L) was 8 µg/mL and the amoxicillin MIC (E. coli [2]; strain 8137, cineol 37.5 mg/L) was 8 µg/mL. The amoxicillin MIC (E. coli [2]; strain 8137, cineol 75 mg/L) was 8 µg/mL, the amoxicillin MIC (E. coli [2]; strain 8137, cineol 150 mg/L) was 8 µg/mL and the amoxicillin MIC (E. coli [2]; strain 8137, cineol 300 mg/L) was 8 µg/mL. It also gave an amoxicillin MIC (E. coli [2]; strain 8137, cineol 600 mg/L) of 8 µg/mL, an amoxicillin MIC (E. coli [2]; strain 8137, cineol 2,500 mg/L) of 8 µg/mL and an amoxicillin MIC (E. coli [2]; strain 8137, cineol 5,000 mg/L) of 8 µg/mL. For the same molecule, the “amoxicillin MIC” value (E. coli [2]; strain 8137, cineol 25,000 mg/L) was 4^+, the “amoxicillin MIC” value (E. coli [2]; strain 8137, cineol 50,000 mg/L) was 0.25^+ and the amoxicillin MIC (E. coli [2]; strain 8137, cineol […]) was 8 µg/mL. For the same molecule, the amoxicillin MIC (E. coli [2]; strain 8151, Amox, cineol 0) was 8 µg/mL.
